According to paper PMC10712727, “Safety, Tolerability, and Pharmacokinetics of Senaparib, a Novel PARP1/2 Inhibitor, in Chinese Patients With Advanced Solid Tumors: A Phase I Trial” (The Oncologist, 2023):

Experiment: Plasma pharmacokinetics after single-dose administration (HPLC-MS/MS)
Type: in vivo, human
Protocol: Dose escalation was conducted using a modified Fibonacci 3 + 3 method (Supplementary Fig. […] At a given dose level, each patient received a single dose of senaparib followed by a 7-day washout period. They then entered a continuous dosing period to confirm the safety and PK profile, in which they received senaparib QD from day 1 to day 21 of each 3-week cycle. Progression to the next higher dose required approval from the Data Safety Monitoring Committee (DSMC) upon review of the safety and PK data of the previous dose. A 50-mg twice-daily (BID) dosing group was added (planned enrollment, n = 6 patients) based on a DSMC review of the safety, PK, and efficacy analysis of the completed QD dose groups in the phase I clinical trial of senaparib dose escalation in Australia (NCT03507543), which commenced prior to the start of this trial. Safety was assessed by recording the incidence of dose-limiting toxicities (DLTs), and the incidence, nature, severity (graded per National Cancer Institute Common Terminology Criteria for Adverse Events version 4.03 [NCI CTCAE v4.03][18]), and relatedness of treatment-emergent adverse events (TEAEs). DLTs were predefined toxicities (Supplementary Table S2) recorded over the 7 days following the single-dose administration of senaparib and during the first treatment cycle (day 1-day 21) for each dose group in the dose-escalation period only. […] Senaparib PK parameters were derived from blood samples collected from patients after the single administration, and at regular intervals during the first cycle of the dose-escalation and dose-expansion periods. Plasma concentrations of senaparib were determined using high-performance liquid chromatography-tandem mass spectrometry. […] There was no formal sample size calculation based on statistical hypothesis testing for this study; the planned enrolment was approximately 30-60 patients across the dose-escalation and dose-expansion cohorts. The actual number in the dose-escalation cohort was adjusted based on the number of dose cohorts required for the modified Fibonacci dose-escalation design and the determined MTD. Definitions for all analysis populations (safety, DLT, PK, and efficacy [intent-to-treat, ITT]) are provided in Supplementary Table S2. No statistical tests were performed; patient demographic and baseline characteristics, safety/tolerability, PK parameters, and efficacy were evaluated descriptively. ORR and DCR and their 95% CIs were calculated for each group using the exact probability method. Kaplan-Meier statistics were used to estimate DOR and PFS, and their 95% CIs for each dose group separately. Dose linearity was explored based on the single-dose data of area under the time-concentration curve (AUC) and maximum plasma concentration (Cmax) using the power model (Y = α × dose β) for the dose range 2-80 mg on a log-transformed scale. The following criterion was used to determine whether dose proportionality was met: if the (2-sided) 90% CI for β was wholly contained within the interval (1 + log(0.5)/log(r), 1 + log(2)/log(r)), then dose proportionality was supported. Here, r was defined as the ratio of the highest to lowest dose. All data analyses were carried out using SAS EG7.1 or higher or (for PK parameters) WinNonlin 7.0 or higher.

O=C(c1cc(Cn2c(=O)[nH]c(=O)c3c(F)cccc32)ccc1F)N1CCN(c2ncccn2)CC1 [Senaparib]
Elimination half-life, range (human, in vivo): 5.1 to 24.3 h | Mean apparent clearance, range across dose groups (human, in vivo): 1.0 to 6.3 L/h | Mean volume of distribution, range across dose groups (human, in vivo): 15.5 to 88.7 L | Median time to Cmax, range across dose groups (human, in vivo): 0.5 to 6.0 h | AUC0-inf, mean±SD (human, in vivo, 2 mg): 1754.1 ng·h/mL | AUC0-t, mean±SD (human, in vivo, 2 mg): 1462.4 ng·h/mL | CL/F, mean±SD (human, in vivo, 2 mg): 1.1 L/h | Cmax, mean±SD (human, in vivo, 2 mg): 0.177 µg/mL | Tmax, median (range) (human, in vivo, 2 mg): 1.0 (1.0-1.0) h | Vd/F, mean±SD (human, in vivo, 2 mg): 21.3 L | t½, median (range) (human, in vivo, 2 mg): 13.0 (13.0-13.0) h | λz, mean±SD (human, in vivo, 2 mg): 5.3 h⁻¹ | AUC0-inf, mean±SD (human, in vivo, 5 mg): 4107.2 ± 2303.2 ng·h/mL | AUC0-t, mean±SD (human, in vivo, 5 mg): 3912.7 ± 2180.7 ng·h/mL | CL/F, mean±SD (human, in vivo, 5 mg): 1.5 ± 0.7 L/h | Cmax, mean±SD (human, in vivo, 5 mg): 0.3787 ± 0.0761 µg/mL | Tmax, median (range) (human, in vivo, 5 mg): 1.9 (1.9-2.0) h | Vd/F, mean±SD (human, in vivo, 5 mg): 15.5 ± 3.5 L | t½, median (range) (human, in vivo, 5 mg): 7.7 (5.8-10.8) h | λz, mean±SD (human, in vivo, 5 mg): 5.2 ± 4.6 h⁻¹ | AUC0-inf, mean±SD (human, in vivo, 10 mg): 9954.7 ± 1274.9 ng·h/mL | AUC0-t, mean±SD (human, in vivo, 10 mg): 9053.7 ± 887.5 ng·h/mL | CL/F, mean±SD (human, in vivo, 10 mg): 1.0 ± 0.1 L/h | Cmax, mean±SD (human, in vivo, 10 mg): 0.6067 ± 0.0935 µg/mL | Tmax, median (range) (human, in vivo, 10 mg): 4.0 (2.0-4.0) h | Vd/F, mean±SD (human, in vivo, 10 mg): 19.6 ± 0.8 L | t½, median (range) (human, in vivo, 10 mg): 14.4 (11.0-15.2) h | λz, mean±SD (human, in vivo, 10 mg): 5.2 ± 0.9 h⁻¹ | AUC0-inf, mean±SD (human, in vivo, 20 mg): 18 955.2±3835.6 h*ng/mL | AUC0-t, mean±SD (human, in vivo, 20 mg): 16 945.0±11 287.2 h*ng/mL | CL/F, mean±SD (human, in vivo, 20 mg): 1.7 ± 1.4 L/h | Cmax, mean±SD (human, in vivo, 20 mg): 1.4533 ± 0.4081 µg/mL | Tmax, median (range) (human, in vivo, 20 mg): 1.9 (1.8-1.9) h | Vd/F, mean±SD (human, in vivo, 20 mg): 19.1 ± 4.5 L | t½, median (range) (human, in vivo, 20 mg): 11.2 (5.1-17.1) h | λz, mean±SD (human, in vivo, 20 mg): 3.5 ± 3.1 h⁻¹ | AUC0-inf, mean±SD (human, in vivo, 40 mg): 16 904.8±4182.4 h*ng/mL | AUC0-t, mean±SD (human, in vivo, 40 mg): 16 428.2±3762.6 h*ng/mL | CL/F, mean±SD (human, in vivo, 40 mg): 2.5 ± 0.7 L/h | Cmax, mean±SD (human, in vivo, 40 mg): 1.68 ± 0.148 µg/mL | Tmax, median (range) (human, in vivo, 40 mg): 1.8 (1.0-1.8) h | Vd/F, mean±SD (human, in vivo, 40 mg): 30.9 ± 2.6 L | t½, median (range) (human, in vivo, 40 mg): 9.3 (7.3-10.2) h | λz, mean±SD (human, in vivo, 40 mg): 7.9 ± 1.4 h⁻¹ | AUC0-inf, mean±SD (human, in vivo, 50 mg): 35 588.9±27 788.9 h*ng/mL | AUC0-t, mean±SD (human, in vivo, 50 mg): 12 067.8±5895.4 h*ng/mL | CL/F, mean±SD (human, in vivo, 50 mg): 2.4 ± 2.0 L/h | Cmax, mean±SD (human, in vivo, 50 mg): 1.56 ± 0.5643 µg/mL | Tmax, median (range) (human, in vivo, 50 mg): 0.7 (0.5-3.5) h | Vd/F, mean±SD (human, in vivo, 50 mg): 36.4 ± 8.6 L | t½, median (range) (human, in vivo, 50 mg): 16.5 (5.7-24.3) h | λz, mean±SD (human, in vivo, 50 mg): 3.3 ± 2.9 h⁻¹ | AUC0-inf, mean±SD (human, in vivo, 60 mg): 25 575.8±10 554.7 h*ng/mL | AUC0-t, mean±SD (human, in vivo, 60 mg): 24 929.7±9991.9 h*ng/mL | CL/F, mean±SD (human, in vivo, 60 mg): 2.6 ± 0.9 L/h | Cmax, mean±SD (human, in vivo, 60 mg): 2.4767 ± 0.3427 µg/mL | Tmax, median (range) (human, in vivo, 60 mg): 2.0 (2.0-3.6) h | Vd/F, mean±SD (human, in vivo, 60 mg): 32.0 ± 8.8 L | t½, median (range) (human, in vivo, 60 mg): 8.5 (7.9-9.9) h | λz, mean±SD (human, in vivo, 60 mg): 8.0 ± 0.9 h⁻¹ | AUC0-inf, mean±SD (human, in vivo, 80 mg): 76 255.9±33 943.0 h*ng/mL | AUC0-t, mean±SD (human, in vivo, 80 mg): 62 385.0±22 693.1 h*ng/mL | CL/F, mean±SD (human, in vivo, 80 mg): 1.2 ± 0.6 L/h | Cmax, mean±SD (human, in vivo, 80 mg): 3.86 ± 1.475 µg/mL | Tmax, median (range) (human, in vivo, 80 mg): 2.0 (2.0-2.0) h | Vd/F, mean±SD (human, in vivo, 80 mg): 30.6 ± 14.5 L | t½, median (range) (human, in vivo, 80 mg): 17.0 (13.3-23.7) h | λz, mean±SD (human, in vivo, 80 mg): 4.1 ± 1.1 h⁻¹ | AUC0-inf, mean±SD (human, in vivo, 100 mg): 40 487.6±20 226.7 h*ng/mL | AUC0-t, mean±SD (human, in vivo, 100 mg): 38 505.2±18 191.9 h*ng/mL | CL/F, mean±SD (human, in vivo, 100 mg): 3.1 ± 1.6 L/h | Cmax, mean±SD (human, in vivo, 100 mg): 3.425 ± 1.5161 µg/mL | Tmax, median (range) (human, in vivo, 100 mg): 2.0 (1.0-4.0) h | Vd/F, mean±SD (human, in vivo, 100 mg): 39.6 ± 1.1 L | t½, median (range) (human, in vivo, 100 mg): 10.4 (6.6-12.9) h | λz, mean±SD (human, in vivo, 100 mg): 5.7 ± 3.3 h⁻¹ | AUC0-inf, mean±SD (human, in vivo, 120 mg): 68 650.9±89 085.5 h*ng/mL | AUC0-t, mean±SD (human, in vivo, 120 mg): 55 962.4±66 684.5 h*ng/mL | CL/F, mean±SD (human, in vivo, 120 mg): 6.3 ± 5.8 L/h | Cmax, mean±SD (human, in vivo, 120 mg): 3.3483 ± 2.8288 µg/mL | Tmax, median (range) (human, in vivo, 120 mg): 1.9 (1.8-6.0) h | Vd/F, mean±SD (human, in vivo, 120 mg): 88.7 ± 86.2 L | t½, median (range) (human, in vivo, 120 mg): 11.3 (6.3-23.8) h | λz, mean±SD (human, in vivo, 120 mg): 3.8 ± 2.9 h⁻¹ | Senaparib exposure (Cmax and AUC) versus dose (single dose, 80-120 mg): appeared to plateau
